Data published in patent US10294202B2, “Pyrrolidinones as herbicides” (FMC Corporation, priority 2013, dated 2019).

Key:
johnsongrass = assay: Test C pre-/postemergence herbicide test; assay type: in vivo, Sorghum halepense
Method in brief: (§1)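 Pre- and postemergence greenhouse screen. Preemergence treatment went onto freshly planted seeds in loam–sand soil; postemergence treatment went onto plants 2 to 18 cm tall at the 1- to 4-leaf stage in sphagnum peat/vermiculite medium. Scoring at 13 to 15 days used a 0–100 control scale.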

sedge, umbrella = assay: Test B flooded paddy test; assay type: in vivo, Cyperus difformis; settings: 500 g ai/ha, Flood; scale of 0 to 100 where 0 is no effect and 100 is complete control
Method in brief: (§2)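 2-leaf plants; flood 3 cm over soil; compound into paddy water; depth held. Greenhouse 13–15 d. Visual rating vs controls, 0 (no effect) to 100 (complete control); dash = not tested.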

rice = assay: Test B flooded paddy test; assay type: in vivo, Oryza sativa; settings: 500 g ai/ha, Flood; scale of 0 to 100 where 0 is no effect and 100 is complete control
Method in brief: as §2

lambsquarters = assay: Test C pre-/postemergence herbicide test; assay type: in vivo, Chenopodium album
Method in brief: as §1

soybean = assay: Test C pre-/postemergence herbicide test; assay type: in vivo, Glycine max
Method in brief: as §1

oat, wild = assay: Test C pre-/postemergence herbicide test; assay type: in vivo, Avena fatua; settings: Postemergence
Method in brief: as §1

morningglory = assay: Test C pre-/postemergence herbicide test; assay type: in vivo, Ipomoea coccinea
Method in brief: as §1

corn = assay: Test A pre-/postemergence herbicide test; assay type: in vivo, Zea mays; settings: Postemergence
Method in brief: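 Visual injury ratings, 0 = no effect, 100 = complete control, taken ~10 days after treatment against untreated greenhouse controls. Preemergence: directed soil spray onto seeded loam/sand pots. Postemergence: spray onto plants at one- to two-leaf stage, 2–10 cm tall.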

ragweed = assay: Test C pre-/postemergence herbicide test; assay type: in vivo, Ambrosia elatior
Method in brief: as §1

barnyardgrass = assay: Test C pre-/postemergence herbicide test; assay type: in vivo, Echinochloa crus-galli
Method in brief: as §1

waterhemp = assay: Test C pre-/postemergence herbicide test; assay type: in vivo, Amaranthus rudis
Method in brief: as §1

[1] = Postemergence, 31 g ai/ha, scale 0 to 100 (0 no effect, 100 complete control)
[2] = Postemergence, 62 g ai/ha, scale 0 (no effect) to 100 (complete control)
[3] = Postemergence, 125 g ai/ha, scale 0 to 100 (0 no effect, 100 complete control)
[4] = Postemergence, 250 g ai/ha, scale 0 to 100 (0 no effect, 100 complete control)
[5] = Preemergence, 31 g ai/ha, scale 0 to 100, 0 is no effect and 100 is complete control
[6] = Preemergence, 62 g ai/ha, scale 0 to 100 (0 no effect, 100 complete control)
[7] = Preemergence, 125 g ai/ha, scale 0 to 100 (0 no effect, 100 complete control)
[8] = 31 g ai/ha, scale 0 to 100 (0 no effect, 100 complete control)
[9] = 62 g ai/ha, scale 0 (no effect) to 100 (complete control)
[10] = 125 g ai/ha, scale 0 to 100 (0 no effect, 100 complete control)
[11] = 250 g ai/ha, scale 0 to 100 (0 no effect, 100 complete control)
[12] = 125 g ai/ha, visual rating on 0 to 100 scale (0 no effect, 100 complete control), approx. 10 days
[13] = 500 g ai/ha, 0 to 100 scale (0 no effect, 100 complete control)
[14] = Preemergence, 125 g ai/ha, scale 0 to 100

CN1CC(c2ccc(C(F)(F)F)cc2)C(C(=O)Nc2cccc(F)c2F)C1=O (stereo not drawn) [Compound 306]
Plant response rating, Johnsongrass (johnsongrass; [1]): 0
Plant response rating, Johnsongrass (johnsongrass; [2]): 0
Plant response rating, Johnsongrass (johnsongrass; [3]): 0
Plant response rating, Johnsongrass (johnsongrass; [4]): 0
Johnsongrass plant response rating (johnsongrass; [5]): 35
Johnsongrass plant response rating (johnsongrass; [6]): 55
Plant response rating, Johnsongrass (johnsongrass; [7]): 80
Plant response rating (scale of 0 to 100), Johnsongrass (johnsongrass; Preemergence, 250 g ai/ha): 85
Plant response rating, Sedge, Umbrella (sedge, umbrella): 0
Plant response rating, Rice (rice): 50
Plant response rating, Lambsquarters (lambsquarters; [1]): 60
Plant response rating, Lambsquarters (lambsquarters; [2]): 70
Plant response rating, Lambsquarters (lambsquarters; [3]): 90
Plant response rating, Lambsquarters (lambsquarters; [4]): 75
Lambsquarters plant response rating (lambsquarters; [5]): 55
Lambsquarters plant response rating (lambsquarters; [6]): 65
Plant response rating, Lambsquarters (lambsquarters; [7]): 75
Plant response rating (scale of 0 to 100), Lambsquarters (lambsquarters; Preemergence, 250 g ai/ha): 80
Plant response rating, Soybean (soybean; [1]): 0
Plant response rating, Soybean (soybean; [2]): 5
Plant response rating, Soybean (soybean; [3]): 5
Plant response rating, Soybean (soybean; [4]): 5
Soybean plant response rating (soybean; [6]): 0
Plant response rating, Soybean (soybean; [7]): 0
Plant response rating (scale of 0 to 100), Soybean (soybean; Preemergence, 250 g ai/ha): 0
Plant response rating, Oat, Wild (oat, wild; [8]): 0
Plant response rating, Oat, Wild (oat, wild; [9]): 0
Plant response rating, Oat, Wild (oat, wild; [10]): 0
Plant response rating, Oat, Wild (oat, wild; [11]): 5
Plant response rating, Morningglory (morningglory; [1]): 0
Plant response rating, Morningglory (morningglory; [2]): 35
Plant response rating, Morningglory (morningglory; [3]): 65
Plant response rating, Morningglory (morningglory; [4]): 5
Morningglory plant response rating (morningglory; [5]): 0
Morningglory plant response rating (morningglory; [6]): 35
Plant response rating, Morningglory (morningglory; [7]): 35
Plant response rating (scale of 0 to 100), Morningglory (morningglory; Preemergence, 250 g ai/ha): 35
Plant response rating, Corn (corn; [12]): 50
Plant response rating, Corn (corn; [13]): 70
Plant response rating, Ragweed (ragweed; [1]): 60
Plant response rating, Ragweed (ragweed; [2]): 55
Plant response rating, Ragweed (ragweed; [3]): 80
Plant response rating, Ragweed (ragweed; [4]): 85
Ragweed plant response rating (ragweed; [6]): 75
Plant response rating, Ragweed (ragweed; [7]): 75
Plant response rating (scale of 0 to 100), Ragweed (ragweed; Preemergence, 250 g ai/ha): 80
Plant response rating, Barnyardgrass (barnyardgrass; [1]): 0
Plant response rating, Barnyardgrass (barnyardgrass; [2]): 45
Plant response rating, Barnyardgrass (barnyardgrass; [3]): 85
Plant response rating, Barnyardgrass (barnyardgrass; [4]): 85
Barnyardgrass plant response rating (barnyardgrass; [5]): 90
Barnyardgrass plant response rating (barnyardgrass; [6]): 90
Plant response rating, Barnyardgrass (barnyardgrass; [7]): 90
Plant response rating (scale of 0 to 100; 0 is no effect, 100 is complete control), Barnyardgrass (barnyardgrass; Preemergence, 250 g ai/ha): 95
Plant response rating, Waterhemp (waterhemp; [1]): 65
Plant response rating, Waterhemp (waterhemp; [2]): 65
Plant response rating, Waterhemp (waterhemp; [3]): 80
Plant response rating, Waterhemp (waterhemp; [4]): 80
Waterhemp plant response rating (waterhemp; [6]): 85
Plant response rating, Waterhemp (waterhemp; [7]): 85
Plant response rating (scale of 0 to 100), Waterhemp (waterhemp; Preemergence, 250 g ai/ha): 90

O=C1NCC(c2cccc(Br)c2)C1C(=O)Nc1ccc(F)c(F)c1F (stereo not drawn) [Compound 310]
Plant response rating, Johnsongrass (johnsongrass; [1]): 0
Plant response rating, Johnsongrass (johnsongrass; [2]): 0
Plant response rating, Johnsongrass (johnsongrass; [3]): 0
Plant response rating, Johnsongrass (johnsongrass; [4]): 5
Johnsongrass plant response rating (johnsongrass; [5]): 0
Johnsongrass plant response rating (johnsongrass; [6]): 0
Plant response rating, Johnsongrass (johnsongrass; [14]): 45
Plant response rating (scale of 0 to 100), Johnsongrass (johnsongrass; Preemergence, 250 g ai/ha): 75
Plant response rating, Sedge, Umbrella (sedge, umbrella): 0
Plant response rating, Rice (rice): 0
Plant response rating, Lambsquarters (lambsquarters; [1]): 25
Plant response rating, Lambsquarters (lambsquarters; [2]): 65
Plant response rating, Lambsquarters (lambsquarters; [3]): 65
Plant response rating, Lambsquarters (lambsquarters; [4]): 70
Lambsquarters plant response rating (lambsquarters; [5]): 0
Lambsquarters plant response rating (lambsquarters; [6]): 5
Plant response rating, Lambsquarters (lambsquarters; [14]): 55
Plant response rating (scale of 0 to 100), Lambsquarters (lambsquarters; Preemergence, 250 g ai/ha): 80
Plant response rating, Soybean (soybean; [1]): 10
Plant response rating, Soybean (soybean; [2]): 10
Plant response rating, Soybean (soybean; [3]): 0
Plant response rating, Soybean (soybean; [4]): 0
Soybean plant response rating (soybean; [6]): 0
Plant response rating, Soybean (soybean; [14]): 0
Plant response rating (scale of 0 to 100), Soybean (soybean; Preemergence, 250 g ai/ha): 0
Plant response rating, Oat, Wild (oat, wild; [8]): 0
Plant response rating, Oat, Wild (oat, wild; [9]): 0
Plant response rating, Oat, Wild (oat, wild; [10]): 0
Plant response rating, Oat, Wild (oat, wild; [11]): 0
Plant response rating, Morningglory (morningglory; [1]): 10
Plant response rating, Morningglory (morningglory; [2]): 0
Plant response rating, Morningglory (morningglory; [3]): 10
Plant response rating, Morningglory (morningglory; [4]): 70
Morningglory plant response rating (morningglory; [5]): 0
Morningglory plant response rating (morningglory; [6]): 0
Plant response rating, Morningglory (morningglory; [14]): 5
Plant response rating (scale of 0 to 100), Morningglory (morningglory; Preemergence, 250 g ai/ha): 5
Plant response rating, Corn (corn; [12]): 20
Plant response rating, Corn (corn; [13]): 50
Plant response rating, Ragweed (ragweed; [1]): 10
Plant response rating, Ragweed (ragweed; [2]): 10
Plant response rating, Ragweed (ragweed; [3]): 20
Plant response rating, Ragweed (ragweed; [4]): 60
Ragweed plant response rating (ragweed; [6]): 0
Plant response rating, Ragweed (ragweed; [14]): 5
Plant response rating (scale of 0 to 100), Ragweed (ragweed; Preemergence, 250 g ai/ha): 35
Plant response rating, Barnyardgrass (barnyardgrass; [1]): 5
Plant response rating, Barnyardgrass (barnyardgrass; [2]): 25
Plant response rating, Barnyardgrass (barnyardgrass; [3]): 50
Plant response rating, Barnyardgrass (barnyardgrass; [4]): 75
Barnyardgrass plant response rating (barnyardgrass; [5]): 50
Barnyardgrass plant response rating (barnyardgrass; [6]): 90
Plant response rating, Barnyardgrass (barnyardgrass; [7]): 90
Plant response rating (scale of 0 to 100; 0 is no effect, 100 is complete control), Barnyardgrass (barnyardgrass; Preemergence, 250 g ai/ha): 95
Plant response rating, Waterhemp (waterhemp; [1]): 5
Plant response rating, Waterhemp (waterhemp; [2]): 10
Plant response rating, Waterhemp (waterhemp; [3]): 10
Plant response rating, Waterhemp (waterhemp; [4]): 10
Waterhemp plant response rating (waterhemp; [6]): 0
Plant response rating, Waterhemp (waterhemp; [14]): 25
Plant response rating (scale of 0 to 100), Waterhemp (waterhemp; Preemergence, 250 g ai/ha): 25

O=C1NCC(c2cccc(OC(F)F)c2)C1C(=O)Nc1ccccc1F (stereo not drawn) [Compound 323]
Plant response rating, Johnsongrass (johnsongrass; [1]): 0
Plant response rating, Johnsongrass (johnsongrass; [2]): 0
Plant response rating, Johnsongrass (johnsongrass; [3]): 0
Plant response rating, Johnsongrass (johnsongrass; [4]): 10
Johnsongrass plant response rating (johnsongrass; [5]): 0
Johnsongrass plant response rating (johnsongrass; [6]): 0
Plant response rating, Johnsongrass (johnsongrass; [14]): 45
Plant response rating (scale of 0 to 100), Johnsongrass (johnsongrass; Preemergence, 250 g ai/ha): 60
Plant response rating, Sedge, Umbrella (sedge, umbrella): 0
Plant response rating, Rice (rice): 20
Plant response rating, Lambsquarters (lambsquarters; [1]): 10
Plant response rating, Lambsquarters (lambsquarters; [2]): 10
Plant response rating, Lambsquarters (lambsquarters; [3]): 65
Plant response rating, Lambsquarters (lambsquarters; [4]): 65
Lambsquarters plant response rating (lambsquarters; [5]): 40
Lambsquarters plant response rating (lambsquarters; [6]): 50
Plant response rating, Lambsquarters (lambsquarters; [14]): 75
Plant response rating (scale of 0 to 100), Lambsquarters (lambsquarters; Preemergence, 250 g ai/ha): 95
Plant response rating, Soybean (soybean; [1]): 0
Plant response rating, Soybean (soybean; [2]): 0
Plant response rating, Soybean (soybean; [3]): 0
Plant response rating, Soybean (soybean; [4]): 0
Soybean plant response rating (soybean; [6]): 0
Plant response rating, Soybean (soybean; [14]): 0
Plant response rating, Oat, Wild (oat, wild; [8]): 0
Plant response rating, Oat, Wild (oat, wild; [9]): 0
Plant response rating, Oat, Wild (oat, wild; [10]): 0
Plant response rating, Oat, Wild (oat, wild; [11]): 0
Plant response rating, Morningglory (morningglory; [1]): 0
Plant response rating, Morningglory (morningglory; [2]): 25
Plant response rating, Morningglory (morningglory; [3]): 5
Plant response rating, Morningglory (morningglory; [4]): 25
Morningglory plant response rating (morningglory; [5]): 0
Morningglory plant response rating (morningglory; [6]): 0
Plant response rating, Morningglory (morningglory; [14]): 0
Plant response rating (scale of 0 to 100), Morningglory (morningglory; Preemergence, 250 g ai/ha): 30
Plant response rating, Corn (corn; [12]): 70
Plant response rating, Corn (corn; [13]): 90
Plant response rating, Ragweed (ragweed; [1]): 0
Plant response rating, Ragweed (ragweed; [2]): 0
Plant response rating, Ragweed (ragweed; [3]): 15
Plant response rating, Ragweed (ragweed; [4]): 20
Ragweed plant response rating (ragweed; [6]): 10
Plant response rating, Ragweed (ragweed; [14]): 40
Plant response rating, Barnyardgrass (barnyardgrass; [1]): 0
Plant response rating, Barnyardgrass (barnyardgrass; [2]): 10
Plant response rating, Barnyardgrass (barnyardgrass; [3]): 35
Plant response rating, Barnyardgrass (barnyardgrass; [4]): 70
Barnyardgrass plant response rating (barnyardgrass; [5]): 80
Barnyardgrass plant response rating (barnyardgrass; [6]): 85
Plant response rating, Barnyardgrass (barnyardgrass; [7]): 98
Plant response rating (scale of 0 to 100; 0 is no effect, 100 is complete control), Barnyardgrass (barnyardgrass; Preemergence, 250 g ai/ha): 98
Plant response rating, Waterhemp (waterhemp; [1]): 0
Plant response rating, Waterhemp (waterhemp; [2]): 0
Plant response rating, Waterhemp (waterhemp; [3]): 0
Plant response rating, Waterhemp (waterhemp; [4]): 20
Waterhemp plant response rating (waterhemp; [6]): 50
Plant response rating, Waterhemp (waterhemp; [14]): 60
